Assay results reported in patent EP3070175A1, “TEST FOR DETERMINING SUSCEPTIBILITY OR RESISTANCE TO POLYMYXINS IN ENTEROBACTERIACEAE” (Université de Fribourg, priority 2015, dated 2016).

What was measured:
S. marcescens = test: MIC determination, broth microdilution in Cation-Adjusted Mueller-Hinton broth (CLSI); format: cell-based, Serratia marcescens; conditions: strain Smar
Description: (§1) Determination of MIC values were performed using the reference technique (broth microdilution in Cation-Adjusted Mueller-Hinton broth) according to the CLSI guidelines. Polymyxin B and colistin (Sigma-Aldrich, Saint-Louis) were tested over a range dilution from 0.12 to 128 µg/ml and 5.10^5 CFU/ml of bacteria in each well was used. Following the EUCAST breakpoints (http://www.eucast.org/), strains with a colistin MICs of ≤ 2 µg/ml were categorized as susceptible, although those with MICs of > 2 µg/ml were resistant.
(§2) All experiments were repeated in triplicate.

P. mirabilis = test: Polymyxin test: colorimetric detection of growth (glucose metabolization, phenol red) in presence of colistin sulphate; format: cell-based, Proteus mirabilis; design: key: +, yellow; -, orange; conditions: strain Pmir; colistin sulphate 3.75 mg/L final; visual colour change, up to 4 h at 37°C
Description: (§3) Each inoculum was prepared by mixing 1 öse (10 µl) of a fresh culture of the tested bacteria in 5 ml of sterile NaCl 0.85% (at a density of 3 Mac Farland, i.e. about 10^9 CFU/ml).
(§4) 250 ml of reactive medium was prepared by mixing the compounds hereafter: • a broth powder of a non selective growth medium for bacteria, the Cation-Adjusted Mueller-Hinton broth (MHB-CA) : 6.25 g • a colour indicator, the phenol red : 0.0125 g • sterile distilled water 225 ml • sterile D (+)-glucose (10 %) anhydrous (sterilization by filtration) : 25 ml
(§5) The pH of the final reactive medium was adjusted to 6.6 and 6.7 with HCl 1M.
(§6) Colistin or polymyxin B was added or not at the concentration of 5 mg/L in the reactive medium. Standard colistin sulphate and polymyxin B were from Sigma Aldrich (Saint-Louis, France). Those antibiotic molecule powders were kept at 4°C before their use, whereas polymyxin dilutions were kept at -20°C.
(§7) For each strain, two wells of a plastic sterile plate with 96 shaped wells were inoculated in parallel with and without polymyxin (colistin sulphate or polymyxin B) in order to compare their colour change.
Plastic sterile plates were from Sarstedt (Nümbrecht, Germany). The tray may be prepared as follows : • 1. […]
The results of the tests were recorded at 10 min (checking for no spontaneous colour change in the well) and then every hour for a maximum of 4 hours by visual inspection. […]

M. morganii = test: MIC determination, broth microdilution in Cation-Adjusted Mueller-Hinton broth (CLSI); format: cell-based; conditions: strain Mmor
Description: as §1, §2

H. alvei = test: as above; format: cell-based; conditions: strain ER
Description: as §1, §2

C. freundii = test: as above; format: cell-based; conditions: for Colistin resistance: EUCAST breakpoints
Description: as §1, §2

E. aerogenes = test: as above; format: cell-based; conditions: strain 6 FR
Description: as §1, §2

E. cloacae = test: as above; format: cell-based; conditions: for Colistin resistance: EUCAST breakpoints
Description: as §1, §2

P. stuartii = test: as above; format: cell-based; conditions: strain Pstu
Description: as §1, §2

K. oxytoca = test: as above; format: cell-based; conditions: strain C24
Description: as §1, §2

E. coli = test: as above; format: cell-based, Escherichia coli; conditions: for Colistin resistance: EUCAST breakpoints
Description: as §1, §2

K. pneumoniae = test: Polymyxin test: colorimetric detection of growth (glucose metabolization, phenol red) in presence of colistin sulphate; format: cell-based, Klebsiella pneumoniae; design: key: +, yellow; -, orange; conditions: colistin sulphate 3.75 mg/L final, visual colour change, up to 4 h at 37°C
Description: as §3, §4, §5, §6, §7
Plastic sterile plates were from Sarstedt (Nümbrecht, Germany). The tray may be prepared as follows : • 1. 150 µl of reactive medium colistin free (obtained in 1.) in the first line • 2. 150 µl of reactive medium with 5 mg/l of colistin sulphate in the second line (final concentration = 3.75 mg/l) • 3. 50 µl of NaCl alone in the first column (one well colistin-free and one well with colistin sulphate) (medium control) • 4. 50 µl of the bacterial suspension (obtained in 2.) for the control strains and for every strain in the other column (one well colistin-free and one well with colistin)
After mixing of the bacterial suspension to the reactive medium by pipetting up and down, the final concentration of bacteria was 2.5.10^8 CFU/ml in each well and the final selective concentration of colistin or polymyxin B in the well with polymyxin was 3.75 mg/L.
The results of the tests were recorded at 10 min (checking for no spontaneous colour change in the well) and then every hour for a maximum of 4 hours by visual inspection. No colour change of the well with colistin sulphate or polymyxin B indicated susceptibility to colistin sulphate or polymyxin B and negativity of those tests. On the contrary, a colour change (orange to yellow) indicates the positivity of the test meaning growth capability (related to glucose metabolism) in presence of colistin sulphate or polymyxin B, i.e. resistance to colistin sulphate or polymyxin B.
as §2

With colistin sulphate the Colistin resistance (S. marcescens; EUCAST breakpoints) was “+ (those with MICs of > 2 µg/ml were resistant)”, the “Colistin MIC” value (S. marcescens; Natural resistance) was >128 µg/mL and the “Results of the method of the invention” value (P. mirabilis) was “+”. The Colistin resistance (M. morganii; EUCAST breakpoints) was “+ (those with MICs of > 2 µg/ml were resistant)”, the “Colistin MIC” value (M. morganii; Natural resistance) was >128 µg/mL and the Colistin resistance (H. alvei; EUCAST breakpoints) was “+ (those with MICs of > 2 µg/ml were resistant)”. For the same substance, the “Colistin MIC” value (H. alvei; resistance mechanism Unknown) was 16 µg/mL, the “Colistin MIC” value (C. freundii; strain 8 FR) was 0.12 µg/mL and the Colistin resistance (C. freundii; strain 8 FR) was “- (strains with a colistin MICs of ≤ 2 µg/ml were categorized as susceptible)”. The “Colistin MIC” value (C. freundii; strain C136) was 0.12 µg/mL, the Colistin resistance (C. freundii; strain C136) was “- (strains with a colistin MICs of ≤ 2 µg/ml were categorized as susceptible)” and the “Colistin MIC” value (E. aerogenes) was 0.12 µg/mL. For the same substance, the Colistin resistance (E. aerogenes; EUCAST breakpoints) was “- (strains with a colistin MICs of ≤ 2 µg/ml were categorized as susceptible)”, the “Colistin MIC” value (E. cloacae; strain 7 FR) was 0.12 µg/mL and the Colistin resistance (E. cloacae; strain 7 FR) was “- (strains with a colistin MICs of ≤ 2 µg/ml were categorized as susceptible)”. The Colistin resistance (E. cloacae; strain C28) was “+ (those with MICs of > 2 µg/ml were resistant)”, the “Colistin MIC” value (E. cloacae; strain C28, resistance mechanism Unknown) was 32 µg/mL and the “Colistin MIC” value (E. cloacae; strain C129) was 0.25 µg/mL. The Colistin resistance (E. cloacae; strain C129) was “- (strains with a colistin MICs of ≤ 2 µg/ml were categorized as susceptible)”, the “Colistin MIC” value (E. cloacae; strain C144) was 0.25 µg/mL and the Colistin resistance (E. cloacae; strain C144) was “- (strains with a colistin MICs of ≤ 2 µg/ml were categorized as susceptible)”. For the same substance, the Colistin resistance (E. cloacae; strain HM) was “+ (those with MICs of > 2 µg/ml were resistant)”, the “Colistin MIC” value (E. cloacae; strain HM, resistance mechanism Unknown) was >128 µg/mL and the Colistin resistance (P. stuartii; EUCAST breakpoints) was “+ (those with MICs of > 2 µg/ml were resistant)”. For the same substance, the “Colistin MIC” value (P. stuartii; Natural resistance) was >128 µg/mL, the Colistin resistance (K. oxytoca; EUCAST breakpoints) was “+ (those with MICs of > 2 µg/ml were resistant)” and the “Colistin MIC” value (K. oxytoca; mgrB promotor truncated with ISKpn26-like) was 64 µg/mL. The “Colistin MIC” value (E. coli; strain 3 FR) was 0.12 µg/mL, the Colistin resistance (E. coli; strain 3 FR) was “- (strains with a colistin MICs of ≤ 2 µg/ml were categorized as susceptible)” and the “Colistin MIC” value (E. coli; strain 5 FR) was 0.25 µg/mL. For the same substance, the Colistin resistance (E. coli; strain 5 FR) was “- (strains with a colistin MICs of ≤ 2 µg/ml were categorized as susceptible)”, the “Colistin MIC” value (E. coli; strain 10 FR) was 0.25 µg/mL and the Colistin resistance (E. coli; strain 10 FR) was “- (strains with a colistin MICs of ≤ 2 µg/ml were categorized as susceptible)”. For the same substance, the Colistin resistance (E. coli; strain 27563) was “+ (those with MICs of > 2 µg/ml were resistant)”, the “Colistin MIC” value (E. coli; strain 27563, resistance mechanism Unknown) was 16 µg/mL and the Colistin resistance (E. coli; strain 27837) was “+ (those with MICs of > 2 µg/ml were resistant)”. For the same substance, the “Colistin MIC” value (E. coli; strain 27837, resistance mechanism Unknown) was 16 µg/mL, the Colistin resistance (E. coli; strain 27850) was “+ (those with MICs of > 2 µg/ml were resistant)” and the “Colistin MIC” value (E. coli; strain 27850, resistance mechanism Unknown) was 16 µg/mL. The Colistin resistance (E. coli; strain 27852) was “+ (those with MICs of > 2 µg/ml were resistant)”, the “Colistin MIC” value (E. coli; strain 27852, resistance mechanism Unknown) was 8 µg/mL and the Colistin resistance (E. coli; strain 30742) was “+ (those with MICs of > 2 µg/ml were resistant)”. The “Colistin MIC” value (E. coli; strain 30742, resistance mechanism Unknown) was 8 µg/mL, the “Colistin MIC” value (E. coli; strain ATCC 25922) was 0.25 µg/mL and the Colistin resistance (E. coli; strain ATCC 25922) was “- (strains with a colistin MICs of ≤ 2 µg/ml were categorized as susceptible)”. The “Colistin MIC” value (E. coli; strain C140) was 0.12 µg/mL, the Colistin resistance (E. coli; strain C140) was “- (strains with a colistin MICs of ≤ 2 µg/ml were categorized as susceptible)” and the “Colistin MIC” value (E. coli; strain Top10) was 0.12 µg/mL. The Colistin resistance (E. coli; strain Top10) was “- (strains with a colistin MICs of ≤ 2 µg/ml were categorized as susceptible)”, the “Results of the method of the invention” value (K. pneumoniae; strain 1 FR) was “-” and the “Results of the method of the invention” value (K. pneumoniae; strain 2 FR) was “-”. For the same substance, the “Results of the method of the invention” value (K. pneumoniae; strain 4 FR) was “-”, the “Results of the method of the invention” value (K. pneumoniae; strain 9 FR) was “-” and the “Results of the method of the invention” value (K. pneumoniae; strain 11 FR) was “+”. The “Results of the method of the invention” value (K. pneumoniae; strain 75b) was “+”, the “Results of the method of the invention” value (K. pneumoniae; strain AF1b) was “+” and the “Results of the method of the invention” value (K. pneumoniae; strain C23) was “+”. For the same substance, the “Results of the method of the invention” value (K. pneumoniae; strain C25) was “+”, the “Results of the method of the invention” value (K. pneumoniae; strain C26) was “+” and the “Results of the method of the invention” value (K. pneumoniae; strain C27) was “+”. The “Results of the method of the invention” value (K. pneumoniae; strain C112) was “-”, the “Results of the method of the invention” value (K. pneumoniae; strain C115) was “-” and the “Results of the method of the invention” value (K. pneumoniae; strain C130) was “-”. For the same substance, the “Results of the method of the invention” value (K. pneumoniae; strain C132) was “-” and the “Results of the method of the invention” value (K. pneumoniae; strain T1b) was “+”.
